Experimental data taken from PMC8222254, “Self-assembly of an anion receptor with metal-dependent kinase inhibition and potent in vitro anti-cancer properties” (Nature Communications, 2021).
Several values for one entry are separate records, joined by “and”; a condition that tells them apart may be missing. Identical values can stand only once.

How the values were obtained:
Assay in all cases: Kinase inhibition screen, cell-free 33P ATP assay at 10 μM
Assay type in all cases: biochemical
[1] = target: 140 purified human kinases (Homo sapiens, UniProt P17948); conditions: VEG-FR
Description: (§1) [L2Cu3]^6+ and [L2Zn3]^6+ were submitted to the MRC Protein Phosphorylation and Ubiquitination Unit International Centre for Kinase Profiling (University of Dundee) and tested in duplicate (at 10 μM) against a series of 140 purified human kinases in a cell-free kinase assay using ^33P ATP[55],[56]. The kinase gene IDs from the screen were then translated into common IDs (HGNC symbol) using biomaRt package[57],[58] in R[59] and R Studio[60] and used as input to the KinMap programme.

[2] = target: 140 purified human kinases (Homo sapiens, UniProt P00519); conditions: ABL
Description: as §1

[3] = target: 140 purified human kinases (Homo sapiens, UniProt Q9BUB5)
Description: as §1

[4] = target: T1, 140 purified human kinases (Homo sapiens, UniProt Q8TDC3)
T1 sequence (Q8TDC3 1-778): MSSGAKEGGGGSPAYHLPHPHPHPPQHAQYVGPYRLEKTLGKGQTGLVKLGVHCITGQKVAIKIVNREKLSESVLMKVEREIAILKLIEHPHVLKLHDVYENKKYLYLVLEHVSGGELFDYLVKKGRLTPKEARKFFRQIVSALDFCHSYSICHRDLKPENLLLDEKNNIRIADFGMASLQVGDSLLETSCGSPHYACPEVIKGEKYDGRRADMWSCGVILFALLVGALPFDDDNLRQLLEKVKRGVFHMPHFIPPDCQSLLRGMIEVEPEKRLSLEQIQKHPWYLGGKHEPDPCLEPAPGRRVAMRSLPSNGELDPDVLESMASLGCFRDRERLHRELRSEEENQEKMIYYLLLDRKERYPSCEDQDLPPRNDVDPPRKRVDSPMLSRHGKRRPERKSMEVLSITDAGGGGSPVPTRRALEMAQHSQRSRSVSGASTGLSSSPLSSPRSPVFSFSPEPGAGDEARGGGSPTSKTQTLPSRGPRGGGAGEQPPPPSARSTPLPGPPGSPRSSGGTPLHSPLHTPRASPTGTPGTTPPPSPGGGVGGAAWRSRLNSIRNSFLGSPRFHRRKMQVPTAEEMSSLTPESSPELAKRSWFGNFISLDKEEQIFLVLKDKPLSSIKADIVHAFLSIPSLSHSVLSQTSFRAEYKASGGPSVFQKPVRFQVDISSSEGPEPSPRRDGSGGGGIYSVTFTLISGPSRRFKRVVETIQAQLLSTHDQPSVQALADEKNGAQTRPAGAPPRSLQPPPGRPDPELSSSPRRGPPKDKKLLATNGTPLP
Description: as §1

[5] = target: 140 purified human kinases (Homo sapiens, UniProt P06239); conditions: Lck
Description: as §1

[6] = target: 140 purified human kinases (Homo sapiens, UniProt P14616); conditions: IRR
Description: as §1

[7] = target: T2, 140 purified human kinases (Homo sapiens, UniProt O00141)
T2 sequence (O00141 1-431): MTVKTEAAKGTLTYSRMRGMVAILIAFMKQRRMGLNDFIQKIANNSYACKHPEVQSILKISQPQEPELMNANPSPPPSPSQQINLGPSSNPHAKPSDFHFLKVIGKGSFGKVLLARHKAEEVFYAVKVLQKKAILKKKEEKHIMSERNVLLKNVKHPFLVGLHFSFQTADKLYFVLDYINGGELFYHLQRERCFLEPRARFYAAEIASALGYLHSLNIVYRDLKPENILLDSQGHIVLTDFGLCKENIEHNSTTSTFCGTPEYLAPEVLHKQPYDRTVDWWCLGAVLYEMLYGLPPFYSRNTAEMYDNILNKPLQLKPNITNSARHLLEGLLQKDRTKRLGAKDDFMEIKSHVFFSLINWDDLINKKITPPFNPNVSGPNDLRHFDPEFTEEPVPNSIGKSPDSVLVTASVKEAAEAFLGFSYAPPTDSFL
Description: as §1

140 purified human kinases (Homo sapiens, UniProt P17948), sequence (P17948 27-1338): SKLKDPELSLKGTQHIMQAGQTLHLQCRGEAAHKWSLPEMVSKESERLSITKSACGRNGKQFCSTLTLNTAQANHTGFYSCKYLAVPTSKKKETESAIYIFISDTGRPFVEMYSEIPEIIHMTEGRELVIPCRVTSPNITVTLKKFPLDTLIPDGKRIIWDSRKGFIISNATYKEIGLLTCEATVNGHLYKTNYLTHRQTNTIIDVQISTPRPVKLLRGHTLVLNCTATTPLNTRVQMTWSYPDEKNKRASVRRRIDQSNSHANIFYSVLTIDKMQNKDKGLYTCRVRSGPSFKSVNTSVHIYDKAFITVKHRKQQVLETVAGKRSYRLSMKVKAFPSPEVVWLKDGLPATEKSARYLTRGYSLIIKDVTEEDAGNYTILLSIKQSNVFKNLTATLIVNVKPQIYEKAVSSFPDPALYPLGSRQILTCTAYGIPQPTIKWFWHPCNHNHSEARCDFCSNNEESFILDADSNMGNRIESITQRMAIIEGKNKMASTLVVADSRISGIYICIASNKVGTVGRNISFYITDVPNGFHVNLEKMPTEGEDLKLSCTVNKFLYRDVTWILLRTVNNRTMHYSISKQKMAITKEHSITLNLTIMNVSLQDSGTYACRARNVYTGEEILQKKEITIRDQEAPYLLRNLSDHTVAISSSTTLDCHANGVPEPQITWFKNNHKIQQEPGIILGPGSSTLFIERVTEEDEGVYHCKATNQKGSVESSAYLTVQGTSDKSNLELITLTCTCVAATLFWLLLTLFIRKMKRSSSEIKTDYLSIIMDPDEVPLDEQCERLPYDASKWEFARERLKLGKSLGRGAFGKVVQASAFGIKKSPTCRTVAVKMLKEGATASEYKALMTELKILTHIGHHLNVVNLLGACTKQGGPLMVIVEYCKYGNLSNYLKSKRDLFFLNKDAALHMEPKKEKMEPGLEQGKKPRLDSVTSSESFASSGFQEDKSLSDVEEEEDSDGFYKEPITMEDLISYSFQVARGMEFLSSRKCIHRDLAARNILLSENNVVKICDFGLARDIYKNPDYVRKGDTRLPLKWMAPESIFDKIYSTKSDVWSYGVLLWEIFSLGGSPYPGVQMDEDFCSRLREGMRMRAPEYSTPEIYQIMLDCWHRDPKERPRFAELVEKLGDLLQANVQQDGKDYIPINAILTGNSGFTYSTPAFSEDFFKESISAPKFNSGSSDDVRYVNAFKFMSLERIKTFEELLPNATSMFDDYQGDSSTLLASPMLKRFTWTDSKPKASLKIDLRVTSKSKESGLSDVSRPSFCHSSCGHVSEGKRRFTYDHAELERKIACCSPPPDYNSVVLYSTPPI
140 purified human kinases (Homo sapiens, UniProt Q9BUB5), sequence (Q9BUB5 whole entry): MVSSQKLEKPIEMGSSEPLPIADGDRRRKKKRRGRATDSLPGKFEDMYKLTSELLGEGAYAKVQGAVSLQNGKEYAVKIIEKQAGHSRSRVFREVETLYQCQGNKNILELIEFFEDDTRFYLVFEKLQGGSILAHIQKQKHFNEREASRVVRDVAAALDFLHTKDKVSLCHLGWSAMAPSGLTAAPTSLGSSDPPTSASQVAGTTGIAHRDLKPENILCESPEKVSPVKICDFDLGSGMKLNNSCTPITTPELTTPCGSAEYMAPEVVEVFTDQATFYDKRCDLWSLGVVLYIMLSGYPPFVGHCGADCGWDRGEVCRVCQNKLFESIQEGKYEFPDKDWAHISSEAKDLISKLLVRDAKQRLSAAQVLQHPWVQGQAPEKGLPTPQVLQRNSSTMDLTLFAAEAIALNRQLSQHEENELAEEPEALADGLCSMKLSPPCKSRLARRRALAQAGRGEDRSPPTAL
140 purified human kinases (Homo sapiens, UniProt P14616), sequence (P14616 27-1297): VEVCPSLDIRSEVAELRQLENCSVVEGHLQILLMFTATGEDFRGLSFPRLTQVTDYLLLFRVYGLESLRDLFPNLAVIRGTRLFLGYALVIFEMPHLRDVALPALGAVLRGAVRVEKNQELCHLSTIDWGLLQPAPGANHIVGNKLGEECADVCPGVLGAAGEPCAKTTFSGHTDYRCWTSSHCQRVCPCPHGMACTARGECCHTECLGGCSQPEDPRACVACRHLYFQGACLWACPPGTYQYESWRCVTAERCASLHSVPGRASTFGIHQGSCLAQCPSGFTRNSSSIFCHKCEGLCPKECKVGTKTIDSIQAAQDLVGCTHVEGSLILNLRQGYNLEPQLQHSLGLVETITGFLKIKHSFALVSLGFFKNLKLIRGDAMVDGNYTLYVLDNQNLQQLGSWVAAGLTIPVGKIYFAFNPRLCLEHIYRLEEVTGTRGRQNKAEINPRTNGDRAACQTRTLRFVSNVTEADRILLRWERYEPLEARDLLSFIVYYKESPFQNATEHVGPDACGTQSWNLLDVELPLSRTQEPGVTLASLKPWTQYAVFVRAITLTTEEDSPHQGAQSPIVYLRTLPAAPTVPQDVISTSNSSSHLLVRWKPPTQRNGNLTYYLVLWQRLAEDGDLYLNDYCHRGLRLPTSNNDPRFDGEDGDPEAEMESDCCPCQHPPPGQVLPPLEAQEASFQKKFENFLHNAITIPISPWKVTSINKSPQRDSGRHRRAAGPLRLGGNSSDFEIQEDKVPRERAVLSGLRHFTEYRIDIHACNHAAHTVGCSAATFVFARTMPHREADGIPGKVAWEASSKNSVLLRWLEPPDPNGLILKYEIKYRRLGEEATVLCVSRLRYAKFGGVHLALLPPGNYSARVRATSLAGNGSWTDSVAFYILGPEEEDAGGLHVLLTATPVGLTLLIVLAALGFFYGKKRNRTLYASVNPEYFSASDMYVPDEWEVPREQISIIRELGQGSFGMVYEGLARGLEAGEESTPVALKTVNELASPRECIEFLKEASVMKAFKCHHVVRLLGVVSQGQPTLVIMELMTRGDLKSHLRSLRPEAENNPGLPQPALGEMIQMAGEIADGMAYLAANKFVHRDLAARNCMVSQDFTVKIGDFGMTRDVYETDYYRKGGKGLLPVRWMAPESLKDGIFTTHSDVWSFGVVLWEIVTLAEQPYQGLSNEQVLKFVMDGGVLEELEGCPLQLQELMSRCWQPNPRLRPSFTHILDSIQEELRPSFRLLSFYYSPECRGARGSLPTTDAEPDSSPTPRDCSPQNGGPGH
140 purified human kinases (Homo sapiens, UniProt P06239), sequence (P06239 whole entry): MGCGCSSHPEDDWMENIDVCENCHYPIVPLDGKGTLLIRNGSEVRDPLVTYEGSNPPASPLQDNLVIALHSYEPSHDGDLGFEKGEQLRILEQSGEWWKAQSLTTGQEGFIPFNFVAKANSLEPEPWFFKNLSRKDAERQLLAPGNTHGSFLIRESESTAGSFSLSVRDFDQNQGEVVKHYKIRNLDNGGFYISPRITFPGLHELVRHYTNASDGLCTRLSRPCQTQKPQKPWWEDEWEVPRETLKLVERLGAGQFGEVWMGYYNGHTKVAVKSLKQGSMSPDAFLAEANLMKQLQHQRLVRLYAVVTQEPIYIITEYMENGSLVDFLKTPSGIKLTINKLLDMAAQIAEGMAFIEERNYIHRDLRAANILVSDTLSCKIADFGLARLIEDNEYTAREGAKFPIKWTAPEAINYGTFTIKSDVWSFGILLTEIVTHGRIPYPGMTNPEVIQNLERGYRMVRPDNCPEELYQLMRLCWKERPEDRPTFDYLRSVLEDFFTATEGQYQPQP
140 purified human kinases (Homo sapiens, UniProt P00519), sequence (P00519 whole entry): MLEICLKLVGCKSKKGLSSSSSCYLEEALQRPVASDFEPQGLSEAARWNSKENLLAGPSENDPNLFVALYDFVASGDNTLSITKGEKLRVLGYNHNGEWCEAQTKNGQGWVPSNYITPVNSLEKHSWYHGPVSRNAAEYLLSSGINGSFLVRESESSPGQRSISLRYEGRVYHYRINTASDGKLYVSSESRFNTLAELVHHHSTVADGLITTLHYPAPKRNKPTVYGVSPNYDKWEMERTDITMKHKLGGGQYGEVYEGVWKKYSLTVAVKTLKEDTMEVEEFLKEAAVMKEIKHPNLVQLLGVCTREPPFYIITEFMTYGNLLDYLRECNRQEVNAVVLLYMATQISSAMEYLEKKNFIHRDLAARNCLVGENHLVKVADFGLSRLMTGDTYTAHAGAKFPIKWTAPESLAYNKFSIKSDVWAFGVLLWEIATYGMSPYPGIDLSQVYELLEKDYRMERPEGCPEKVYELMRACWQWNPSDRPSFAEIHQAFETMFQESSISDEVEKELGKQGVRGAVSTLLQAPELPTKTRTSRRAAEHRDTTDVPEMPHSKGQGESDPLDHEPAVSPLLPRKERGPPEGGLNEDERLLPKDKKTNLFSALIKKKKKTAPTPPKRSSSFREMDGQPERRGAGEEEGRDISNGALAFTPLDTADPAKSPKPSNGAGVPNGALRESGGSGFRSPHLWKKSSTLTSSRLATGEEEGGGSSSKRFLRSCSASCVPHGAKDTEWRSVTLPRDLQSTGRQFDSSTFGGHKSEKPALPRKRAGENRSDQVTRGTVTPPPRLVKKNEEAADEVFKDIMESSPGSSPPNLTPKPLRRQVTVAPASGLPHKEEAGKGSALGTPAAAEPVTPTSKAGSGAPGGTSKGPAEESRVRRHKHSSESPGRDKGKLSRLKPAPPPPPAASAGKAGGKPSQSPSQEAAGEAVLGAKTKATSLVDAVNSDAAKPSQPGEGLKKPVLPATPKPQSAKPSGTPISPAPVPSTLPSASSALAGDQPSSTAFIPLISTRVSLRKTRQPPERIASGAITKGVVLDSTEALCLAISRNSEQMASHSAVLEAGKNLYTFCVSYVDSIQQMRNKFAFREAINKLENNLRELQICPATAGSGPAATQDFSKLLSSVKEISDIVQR

SMILES: CC(=O)[O-].CC(=O)[O-].CC(=O)[O-].CC(=O)[O-].CC(=O)[O-].CC(=O)[O-].[Zn+2].[Zn+2].[Zn+2].c1ccc(-c2csc(NCCN(CCNc3nc(-c4ccccn4)cs3)CCNc3nc(-c4ccccn4)cs3)n2)nc1.c1ccc(-c2csc(NCCN(CCNc3nc(-c4ccccn4)cs3)CCNc3nc(-c4ccccn4)cs3)n2)nc1 [[L2Zn3]6+]
- % Inhibition, Mean [1]: 17%
- mean % activity [1]: 83%
- % activity ([1]; duplicate runs): 73% and 93%
- % Inhibition, Mean [2]: 9%
- mean % activity [2]: 91%
- % activity ([2]; duplicate runs): 81% and 100%
- % Activation, Mean value ([3]; MNK1): 14%
- % Inhibition, Mean ([3]; MNK1): -14%
- % Inhibition, Run 1 / Run 2 ([3]; MNK1): -12% and -15%
- mean % activity ([3]; MNK1): 114%
- % Activity Run 1 ([3]; MNK1, 10 µM): 112.0%
- % Activity Run 2 ([3]; MNK1, 10 µM): 115.0%
- % activity ([3]; MNK1, duplicate runs): 112% and 115%
- % Inhibition, Mean ([4]; BRSK1): 32%
- % Inhibition, Run 1 / Run 2 ([4]; BRSK1): 39% and 26%
- mean % activity ([4]; BRSK1): 68%
- % activity ([4]; BRSK1, duplicate runs): 62% and 74%
- % Inhibition, Mean [5]: 44%
- % Inhibition, Run 1 / Run 2 [5]: 51% and 36%
- mean % activity [5]: 56%
- % activity ([5]; duplicate runs): 49% and 64%
- % Inhibition, Mean [6]: 6.6%
- % Inhibition, Run 1 / Run 2 [6]: 2.4% and 11%
- mean % activity [6]: 93%
- % activity ([6]; duplicate runs): 98% and 89%
- % Inhibition, Mean ([7]; SGK1): 37%
- % Inhibition, Run 1 / Run 2 ([7]; SGK1): 43% and 32%
- mean % activity ([7]; SGK1): 63%
- % activity ([7]; SGK1, duplicate runs): 57% and 68%

SMILES: [Cu+2].[Cu+2].[Cu+2].c1ccc(-c2csc(NCCN(CCNc3nc(-c4ccccn4)cs3)CCNc3nc(-c4ccccn4)cs3)n2)nc1.c1ccc(-c2csc(NCCN(CCNc3nc(-c4ccccn4)cs3)CCNc3nc(-c4ccccn4)cs3)n2)nc1 [[L2Cu3]6+]
- % Inhibition Run 1 [1]: 28.1%
- % Inhibition Run 2 [1]: 27.2%
- % Inhibition, Mean [1]: 28%
- mean % activity [1]: 72%
- % activity ([1]; Run 1): 71.9%
- % activity ([1]; Run 2): 72.8%
- % Activation, Mean value [2]: 17%
- % Inhibition Run 1 [2]: -27.4%
- % Inhibition Run 2 [2]: -7.5%
- % Inhibition, Mean [2]: -17%
- mean % activity [2]: 117%
- % activity ([2]; Run 1): 127.4%
- % activity ([2]; Run 2): 107.5%
- % Activity Run 1 ([2]; 10 µM): 127.40%
- % Activity Run 2 ([2]; 10 µM): 107.50%
- % Inhibition Run 1 ([3]; MNK1): 85.8%
- % Inhibition Run 2 ([3]; MNK1): 80.4%
- % Inhibition, Mean ([3]; MNK1): 83%
- mean % activity ([3]; MNK1): 17%
- % activity ([3]; MNK1, Run 1): 14.2%
- % activity ([3]; MNK1, Run 2): 19.6%
- % Inhibition Run 1 ([4]; BRSK1): 95.4%
- % Inhibition Run 2 ([4]; BRSK1): 93.2%
- % Inhibition, Mean ([4]; BRSK1): 94%
- mean % activity ([4]; BRSK1): 5.7%
- % activity ([4]; BRSK1, Run 1): 4.6%
- % activity ([4]; BRSK1, Run 2): 6.8%
- % Activity inhibition Mean ([4]; BRSK1, 10 µM): 94.3%
- % Activity inhibition Run 1 ([4]; BRSK1, 10 µM): 95.4%
- % Activity inhibition Run 2 ([4]; BRSK1, 10 µM): 93.2%
- % Activity remaining Run 1 ([4]; BRSK1, 10 µM): 4.60%
- % Activity remaining Run 2 ([4]; BRSK1, 10 µM): 6.80%
- % Inhibition Run 1 [5]: 64.9%
- % Inhibition Run 2 [5]: 65.8%
- % Inhibition, Mean [5]: 65%
- mean % activity [5]: 35%
- % activity ([5]; Run 1): 35.1%
- % activity ([5]; Run 2): 34.2%
- % Inhibition Run 1 [6]: 26.1%
- % Inhibition Run 2 [6]: 42.9%
- % Inhibition, Mean [6]: 35%
- mean % activity [6]: 66%
- % activity ([6]; Run 1): 73.9%
- % activity ([6]; Run 2): 57.1%
- % Inhibition Run 1 ([7]; SGK1): 85.6%
- % Inhibition Run 2 ([7]; SGK1): 88.5%
- % Inhibition, Mean ([7]; SGK1): 87%
- mean % activity ([7]; SGK1): 13%
- % activity ([7]; SGK1, Run 1): 14.4%
- % activity ([7]; SGK1, Run 2): 11.5%
